The compounds below were run against T1, Recombinant human renin (Homo sapiens, UniProt P00797) (assay: In vitro enzymatic activity assay of renin inhibitors (fluorogenic peptide substrate)). Conditions: read-out: IC50 of Exemplified Compounds Against Renin.
T1 construct: isolate the active form (residues 67-406); made in house; host or cells: FreeStyle 293-F cells (transient expression of pcDNA3.1(+)/hREN)
T1 sequence (P00797 67-406): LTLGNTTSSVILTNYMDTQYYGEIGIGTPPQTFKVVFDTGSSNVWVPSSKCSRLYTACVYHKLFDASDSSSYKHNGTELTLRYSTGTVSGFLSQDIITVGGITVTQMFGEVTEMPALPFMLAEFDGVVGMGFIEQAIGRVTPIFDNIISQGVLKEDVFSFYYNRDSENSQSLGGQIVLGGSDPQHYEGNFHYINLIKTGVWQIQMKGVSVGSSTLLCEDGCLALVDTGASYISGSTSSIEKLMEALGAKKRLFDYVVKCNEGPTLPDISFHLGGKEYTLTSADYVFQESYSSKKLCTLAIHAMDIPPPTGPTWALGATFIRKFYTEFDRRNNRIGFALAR
Assay type: biochemical
Procedure, shortened: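 Enzyme: recombinant human renin, 3 nM final, 10 min compound pre-incubation at 37 °C; buffer 50 mM Hepes pH 7.4 with 0.1 mg/mL BSA or extra 2% BSA; 5% DMSO.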
Compound `COCCCn1c([C@@H]2CCCN(C(=O)C[C@H](N)Cc3ccc4ccccc4c3)C2)nc2ccc(F)cc21` [Compound 95, (R)-3-amino-1((R)-3-(6-fluoro-1-(3-methoxypropyl)-1H-benzo[d]imidazol-2-yl)piperidin-1-yl)-4-(naphthalen-2-yl)butan-1-one] has an IC50 of 0.1 to 1 µM. `COCCCn1c([C@@H]2CCCN(C(=O)C[C@H](N)Cc3ccc4ccccc4c3)C2)nc2cc(F)ccc21` [Compound 96, (R)-3-amino-1((R)-3-(5-fluoro-1-(3-methoxypropyl)-1H-benzo[d]imidazol-2-yl)piperidin-1-yl)-4-(naphthalen-2-yl)butan-1-one] gave an IC50 of 0.1 to 1 µM. `COCCCn1c([C@@H]2CCCN(C(=O)C[C@H](N)Cc3ccc4ccccc4c3)C2)nc2cccc(Cl)c21` [Compound 97, (R)-3-amino-1-((R)-3-(7-chloro-1-(3-methoxypropyl)-1H-benzo[d]imidazol-2-yl)piperidin-1-yl)-4-(naphthalen-2-yl)butan-1-one] was tested, and the IC50 was < 0.1 µM. `COCCCn1c([C@@H]2CCCN(C(=O)C[C@H](N)Cc3ccc(-c4ccccc4)cc3)C2)nc2cccc(Cl)c21` [Compound 98, (R)-3-amino-4-(biphenyl-4-yl)-1-((R)-3-(7-chloro-1-(3-methoxypropyl)-1H-benzo[d]imidazol-2-yl)piperidin-1-yl)butan-1-one] was tested, and the IC50 was < 0.1 µM. `COCCCn1c([C@@H]2CCCN(C(=O)C[C@H](N)Cc3ccc4ccccc4c3)C2)nc2ccc(Cl)cc21` [Compound 99, (R)-3-amino-1-((R)-3-(6-chloro-1-(3-methoxypropyl)-1H-benzo[d]imidazol-2-yl)piperidin-1-yl)-4-(naphthalen-2-yl)butan-1-one] gave an IC50 of 0.1 to 1 µM. `COCCCn1c(C2CCCN(C(=O)C[C@H](N)Cc3ccc4ccccc4c3)C2)nc2ccc(OC)nc21` (stereo partly drawn) [Compound 100, (R)-3-amino-1-(3-(5-methoxy-3-(3-methoxypropyl)-3H-imidazo[4,5-b]pyridin-2-yl)piperidin-1-yl)-4-(naphthalen-2-yl)butan-1-one] was tested, and the IC50 was 0.1 to 1 µM. `COCCCn1c(C2CCCN(C(=O)CC(N)Cc3ccc4ccccc4c3)C2)nc2ccc(=O)[nH]c21` [Compound 101, (R)-2-(1-(3-amino-4-(naphthalen-2-yl)butanoyl)piperidin-3-yl)-3-(3-methoxypropyl)-3H-imidazo[4,5-b]pyridin-5(4H)-one] was tested, and the IC50 was > 1 µM. For `COCCCn1c(C2CCCN(C(=O)C[C@H](N)Cc3ccc4ccccc4c3)C2)nc2ccc(Cl)nc21` (stereo partly drawn) [Compound 102, (R)-3-amino-1-(3-(5-chloro-3-(3-methoxypropyl)-3H-imidazo[4,5-b]pyridin-2-yl)piperidin-1-yl)-4-(naphthalen-2-yl)butan-1-one], the IC50 was > 1 µM. `COCCCn1c([C@@H]2CCCN(C(=O)C[C@H](N)Cc3ccc(-c4ccccc4)cc3)C2)nc2ccncc21` [Compound 103, (R)-3-amino-4-(biphenyl-4-yl)-1((R)-3-(3-(3-methoxypropyl)-3H-imidazo[4,5-c]pyridin-2-yl)piperidin-1-yl)butan-1-one] was tested, and the IC50 was > 1 µM. In the case of `COCCCn1c([C@@H]2CCCN(C(=O)C[C@H](N)Cc3ccc4ccccc4c3)C2)nc2c(OC)cccc21` [Compound 104, (R)-3-amino-1((R)-3-(4-methoxy-1-(3-methoxypropyl)-1H-benzo[d]imidazol-2-yl)piperidin-1-yl)-4-(naphthalen-2-yl)butan-1-one], the IC50 is reported as 0.1 to 1 µM. In the case of `COCCCn1c([C@@H]2CCCN(C(=O)C[C@H](N)Cc3ccc4ccccc4c3)C2)nc2cc(C)ccc21` [Compound 105, (R)-3-amino-1((R)-3-(1-(3-methoxypropyl)-5-methyl-1H-benzo[d]imidazol-2-yl)piperidin-1-yl)-4-(naphthalen-2-yl)butan-1-one], the IC50 is reported as < 0.1 µM. In the case of `COCCCn1c([C@@H]2CCCN(C(=O)C[C@H](N)Cc3ccc4ccccc4c3)C2)nc2c(C)cccc21` [Compound 106, (R)-3-Amino-1-((R)-3-(1-(3-methoxypropyl)-4-methyl-1H-benzo[d]imidazol-2-yl)piperidin-1-yl)-4-(naphthalen-2-yl)butan-1-one], the IC50 is reported as < 0.1 µM. In the case of `COCCCn1c([C@@H]2CCCN(C(=O)C[C@H](N)Cc3ccc4ccccc4c3)C2)nc2cccc(C)c21` [Compound 107, (R)-3-Amino-1-((R)-3-(1-(3-methoxypropyl)-7-methyl-1H-benzo[d]imidazol-2-yl)piperidin-1-yl)-4-(naphthalen-2-yl)butan-1-one], the IC50 is reported as > 1 µM. `COCCCn1c([C@@H]2CCCN(C(=O)C[C@H](N)Cc3ccc4ccccc4c3)C2)nc2cccc(OC)c21` [Compound 108, (R)-3-amino-1-((R)-3-(7-methoxy-1-(3-methoxypropyl)-1H-benzo[d]imidazol-2-yl)piperidin-1-yl)-4-(naphthalen-2-yl)butan-1-one] showed an IC50 of 0.1 to 1 µM. `COCCCn1c([C@@H]2CCCN(C(=O)C[C@H](N)Cc3ccc4ccccc4c3)C2)nc2ccc(C#N)cc21` [Compound 109, 2-((R)-1-((R)-3-amino-4-(naphthalen-2-yl)butanoyl)piperidin-3-yl)-1-(3-methoxypropyl)-1H-benzo[d]imidazole-6-carbonitrite] showed an IC50 of 0.1 to 1 µM. Work on `COCCCn1c([C@@H]2CCCN(C(=O)C[C@H](N)Cc3ccc4ccccc4c3)C2)nc2ccc(OC)cc21` [Compound 110, (R)-3-amino-1((R)-3-(6-methoxy-1-(3-methoxypropyl)-1H-benzo[d]imidazol-2-yl)piperidin-1-yl)-4-(naphthalen-2-yl)butan-1-one] yielded an IC50 of 0.1 to 1 µM. Compound `COCCCn1c(C2CCCN(C(=O)C[C@H](N)Cc3ccc4ccccc4c3)C2)nc2ccc(C(=O)OC)cc21` (stereo partly drawn) [Compound 111, methyl 2-(1-((R)-3-amino-4-(naphthalen-2-yl)butanoyl)piperidin-3-yl)-1-(3-methoxypropyl)-1H-benzo[d]imidazole-6-carboxylate] has an IC50 of 0.1 to 1 µM. For `COCCCn1c(C2CCCN(C(=O)C[C@H](N)Cc3ccc4ccccc4c3)C2)nc2cccc(C(=O)OC)c21` (stereo partly drawn) [Compound 112, methyl 2-(1-((R)-3-amino-4-(naphthalen-2-yl)butanoyl)piperidin-3-yl)-1-(3-methoxypropyl)-1H-benzo[d]imidazole-7-carboxylate], the IC50 was > 1 µM. `COCCCn1c(C2CCCN(C(=O)C[C@H](N)Cc3ccc4ccccc4c3)C2)nc2ccc(CO)cc21` (stereo partly drawn) [Compound 113, (3R)-3-amino-1-(3-(6-(hydroxymethyl)-1-(3-methoxypropyl)-1H-benzo[d]imidazol-2-yl)piperidin-1-yl)-4-(naphthalen-2-yl)butan-1-one] was tested, and the IC50 was 0.1 to 1 µM. `COCCCn1c([C@@H]2CCCN(C(=O)C[C@H](N)Cc3ccc4ccccc4c3)C2)nc2ccc([N+](=O)[O-])cc21` [Compound 114, (R)-3-amino-1-((R)-3-(1-(3-methoxypropyl)-6-nitro-1H-benzo[d]imidazol-2-yl)piperidin-1-yl)-4-(naphthalen-2-yl)butan-1-one] was tested, and the IC50 was > 1 µM. `COCCCn1c([C@@H]2CCCN(C(=O)C[C@H](N)Cc3ccc4ccccc4c3)C2)nc2cc([N+](=O)[O-])ccc21` [Compound 115, (R)-3-arni no-1-((R)-3-(1-(3-methoxypropyl)-5-nitro-1H-benzo[d]imidazol-2-yl)piperidin-1-yl)-4-(naphthalen-2-yl)butan-1-one] gave an IC50 of 0.1 to 1 µM. With `COCCCn1c([C@@H]2CCCN(C(=O)C[C@H](N)Cc3ccc4ccccc4c3)C2)nc2ccc(C(C)C)cc21` [Compound 116, (R)-3-amino-1-((R)-3-(6-isopropyl-1-(3-methoxypropyl)-1H-benzo[d]imidazol-2-yl)piperidin-1-yl)-4-(naphthalen-2-yl)butan-1-one] the IC50 was 0.1 to 1 µM.

— patent publication US8138168B1 (Takeda Pharmaceutical Company Limited, priority 2007, dated 2012)
